Experiment [1] relates to Arom^hum mice. Description: Prevention of inguinal hernia, LAMT fibrosis and atrophy in Arom^hum mice (treatment started before hernia formation). Format: in vivo, mouse. The settings on record: Arom^hum mice. The source says: Increased LAMT estrogen levels are associated with LAMT fibrosis, myocyte atrophy, and inguinal hernia development; aromatase inhibitor prevents hernia formation in Arom^hum mice. […] None of the WT littermates (n=32) developed hernia.
In the mouse, the scrotum is connected to the peritoneal cavity with a narrow funicular (or inguinal) canal, whose walls are composed of LAMT. Structurally normal LAMT is essential to maintain the tone of this canal and prevents herniation of bowel. LAMT is the critical site affected by E2 excess (FIGS. 2, 5, 6). As in many other tissues, stromal cells intimately interact with parenchymal cells (myocytes) in UAMT and LAMT (FIG. 6). […] Administration of the aromatase inhibitor letrozole started at 3 weeks of age for 12 weeks prevented LAMT atrophy, fibrosis and herniation in all (10 out of 10) treated Arom^hum mice (FIG. 6B).
Experiment 1a1: Does aromatase inhibition arrest or reverse LAMT fibrosis, atrophy, and hernia in male Arom^hum mice? […] The hernias will be classified as mild, early moderate, late moderate and severe if the bulging area through muscle tissue is <100 mm^2 (˜4 weeks), 100-150 mm^2 (˜6 weeks), 150-200 mm^2 (˜8 weeks), or >200 mm^2 (˜10 weeks), respectively. First, we will treat Arom^hum mice showing mild hernias with letrozole (SC 10 μg/day release pellet) or vehicle starting at 4 weeks of age for 12 weeks^63. We will assess whether muscle fibrosis, atrophy, and hernia can be arrested or reversed in mildly (<100 mm^2) affected animals. If early letrozole treatment can arrest mild muscle fibrosis, we will delay the initiation of treatment to 6, 8, or 10 weeks of age to determine whether letrozole can arrest or reverse the growth of the early moderate (6 weeks), late moderate (8 weeks) or severe hernia (10 weeks). Hernia development will be monitored by visual inspection twice a week for 12 weeks after letrozole administration and will be reported as hernia incidence using Kaplan-Meier curve analysis. The length and width of the observed hernias will be measured to calculate the surface area (length×width). After completion of the treatment, the mice will be dissected, and LAMT, UAMT (control), and serum will be collected. One hundred mg of frozen muscle tissue will be obtained to measure tissue estrogen levels. Circulating and tissue (LAMT and UAMT) E2 levels will be measured at the IIT Research Institute by Dr. Miguel Muzzio (see letter) using LC-MS^2. We will use immunoblotting and IHC to determine ERα expression in LAMT and UAMT.
This finding was published in PNAS in Oct., 2018. […] We treated Arom^hum mice with fulvestrant for 12 weeks starting at the age of 4 weeks (before hernia formation). As expected, placebo-treated Arom^hum mice developed scrotal hernias.

The test system of experiment [2] is Arom^hum mice. Description: Reversal of established scrotal hernias and LAMT fibrosis/atrophy in Arom^hum mice. The class given is in vivo, mouse. On the procedure: FIG. 16. […] Arom^hum mice with small to moderate size of hernias were treated with placebo or letrozole for 12 weeks. (A) Schematic diagram depicts the schedule of drug administration. (B) The area of scrotal hernia in Arom^hum mice. (C) Representative photomicrographs of Masson's trichrome-stained LAMT sections of WT and Arom^hum mice. Quantification of the percentage of connective tissue or fibrotic area (D) or myofiber area (E) in WT and Arom^hummice. 10 representative high-power fields were analyzed in each tissue. One-way ANOVA with Tukey's multiple comparison test, **p<0.01, ***p<0.001. Scale bars, […]. n=5 mice per group.
FIG. 17. […] Arom^hum mice with small to moderate size of hernias were treated with placebo or letrozole for 3 weeks. (A) Schematic diagram depicts the schedule of drug administration. (B) The area of scrotal hernia in Arom^hum mice.
FIG. 18. E2/ER antagonist fulvestrant reverses the large size of scrotal hernias and rescues LAMT fibrosis and myocyte atrophy in Arom^hum mice. Arom^hum mice with large size of hernias were treated with placebo or fulvestrant for 12 weeks. (A) Schematic diagram depicts the schedule of drug administration. (B) The area of scrotal hernia in Arom^hum mice. (C) Representative photomicrographs of Masson's trichrome-stained LAMT sections of WT and Arom^hum mice. Quantification of the percentage of connective tissue or fibrotic area (D) in WT and Arom^hum mice. 10 representative high-power fields were analyzed in each tissue. (E) Hydroxyproline content in LAMT of WT and Arom^hum mice treated with fulvestrant. One-way ANOVA with Tukey's multiple comparison test, ***p<0.001, ****p<0.0001. n=5 mice per group.
FIG. 19. Aromatase inhibitor letrozole reverses the large size of scrotal hernias in Arom^hum mice. Arom^hum mice with large size of hernias were treated with placebo or letrozole for 12 weeks. (A) Schematic diagram depicts the schedule of drug administration. (B) The area of scrotal hernia in Arom^hum mice.
FIG. 20. E2/ER antagonist raloxifene reverses the large size of scrotal hernias in Arom^hum mice. Arom^hum mice with large size of hernias were treated with placebo or raloxifene for 3 weeks. (A) Schematic diagram depicts the schedule of drug administration. (B) The area of scrotal hernia in Arom^hum mice.
We treated Arom^hum mice with letrozole for 12 weeks. […] Raloxifene is a selective estrogen receptor modulator (SERM) and is currently used to prevent and treat osteoporosis in postmenopausal women.
We treated Arom^hum mice with fulvestrant for 12 weeks when the hernia area was over 200 mm^2. Large hernias were completely disappeared after 3- to 4-week of fulvestrant administration. […] We measured the total amount of collagen (largely type I and III), a major component of ECM, through measuring the content of hydroxyproline(1).

Entries after “also recorded” stand apart in the source; their conditions may differ.

Regarding `C[C@]12CC[C@@H]3c4ccc(O)cc4C[C@@H](CCCCCCCCC[S+]([O-])CCCC(F)(F)C(F)(F)F)[C@H]3[C@@H]1CC[C@@H]2O` (some centres unmarked) [fulvestrant], the “development of LAMT fibrosis (fibrotic area, Masson's trichrome)” value with Arom^hum mice [1] (4-week-old mice treated for 12 weeks, FIGS. 15C and D) was “rescues lower abdominal muscle tissue (LAMT) fibrosis and myocyte atrophy”. The “myofiber atrophy (myofiber cross-sectional area)” value in the experiment with Arom^hum mice [1] (4-week-old mice treated for 12 weeks, FIGS. 15C and E) is reported as “completely prevented myofiber atrophy”. Further, the hernia formation entry in the experiment with Arom^hum mice [1] (fulvestrant for 12 weeks starting at the age of 4 weeks (before hernia formation)) is “completely prevented by fulvestrant administration”. The “myofiber atrophy / myofiber cross-section area” value in the experiment on Arom^hum mice [2] (Arom^hum mice with large hernias, fulvestrant 12 weeks, FIG. 18C) is listed as “completely reversed myofiber atrophy; also recorded: increase in myofiber cross-section area”. Also, the “total collagen content in LAMT (hydroxyproline assay)” value in the experiment with Arom^hum mice [2] (Arom^hum mice with large hernias, fulvestrant 12 weeks, FIG. 18E) is on record as “decreased to normal levels similar to WT mice”. In addition, in the experiment on Arom^hum mice [2] (Arom^hum mice with large hernias, fulvestrant 12 weeks, FIGS. 18C and D), the “established fibrosis in the LAMT” value is on record as “completely reversed with fulvestrant treatment; also recorded: decrease in muscle fibrosis”. For the same compound, the “reversal of large and severe hernias (>200 mm^2)” value in the experiment with Arom^hum mice [2] (Arom^hum mice, fulvestrant alone for 12 weeks, started when hernia area was over 200 mm^2, FIG. 18) is “can reverse large and severe hernias”. Further, the “time of administration after which large hernias completely disappeared” value in the experiment with Arom^hum mice [2] (Arom^hum mice, hernia area over 200 mm^2) was 3- to 4 week.
